We go through two compounds from patent US12053477B2, “Methods for treating pulmonary fibrosis” (Reviva Pharmaceuticals, Inc., priority 2017, dated 2024).

Data set [1] concerns the target Human Cortex or Human recombinant 5-HT2A (Homo sapiens (Human), UniProt P28223). In words: Serotonin 5HT2A radioligand binding assay.
Data set [2] deals with Human recombinant D2S (Homo sapiens (Human), UniProt P14416). Kind of data set: Dopamine D2S radioligand binding assay.
The target of data set [3] is Human recombinant 5-HT1A (Homo sapiens (Human), UniProt P08908). Kind of data set: Serotonin 5HT1A radioligand binding assay.
In data set [4] the test system is Bleomycin (BLM) induced pulmonary fibrosis. Kind of data set: Bleomycin (BLM) induced pulmonary fibrosis rat model. The data set is classed as in vivo, Sprague Dawley rats. The procedure: Study Animals: The investigation involved 34 male Sprague Dawley rats (weights: 275-300 g; ages: 8 weeks; Charles River Laboratories, Quebec, Canada) randomized for equal distribution according to their body weight into four groups.
Study Methods: On Day 0, animals in Group 1 (Sham; N=5) received one intratracheal administration of the vehicle, 0.250 mL of vehicle 0.9% saline solution (FIG. 1). Animals in Groups 2 to 4 (n=9, 10, 10, respectively) received a single intratracheal instillation of 0.250 mL (5 U/kg-3.33 mg/kg) of bleomycin sulfate (Cayman Chemicals, Ann Arbor, MI) solution. From Day 1 to 10, the vehicle was administered to Groups 1, 2, and 4. […] The vehicle administration was continued to Group 1 (Sham) and Group 2 (BLM) until Day 20. […] During the treatment period, food and water were provided ad libitum to the rats. On each day, animals were monitored for behavior, general health status, and survival. Body weight and food intake were also measured.
For bleomycin, 50 mg of drug was weighed and dissolved in 12.5 mL of sterile 0.9% Saline solution was added to obtain a solution of 4 mg/mL. The vehicle was created by dissolving 50 g of glucose in 1 L of water to result in a 5% solution.
On Day 21, animals were anesthetized and instrumented. Hemodynamic parameters (systemic arterial blood pressure, heart rate, and oxygen saturation) were recorded continuously for at least 5 minutes. At the end of the recording, a blood sample was collected. After the animal was exsanguinated, the pulmonary circulation was flushed with 0.9% NaCl, and tissues (lungs, trachea, and heart) were harvested altogether from the thoracic cavity for further analysis.
Parameters Measured on Surgery Day: Cardiac activity was recorded continuously during the surgical procedure. Cardiac activity was monitored using three electrocardiographic (ECG) contact electrodes placed in a lead-I/II configuration and connected to an IsoDam8 differential amplifier. Heart rate (HR) was recorded using duplicate systems: from the ECG records (RR-intervals) and using an N-595 pulse oximeter attached to the left front paw of the animal. The heart rate values derived from the pulse oximeter were measured in beat per minutes (bpm) using cursor readings in Clampfit 10.2.0.14CA. Blood oxygen saturation (SpO2) was measured using a pulse oximeter signal attached to the left front paw of the animal.
Systemic arterial blood pressure (SAP) was monitored continuously using an intra-arterial fluid-filled catheter connected to a pressure transducer, with diastolic and systolic pressures values measured in mm Hg. Calculation of mean SAP (mSAP) and pulse pressure (PP) used the following formulas: 1−mSAP=diastolic systemic pressure+([systolic systemic pressure−diastolic systemic pressure]/3); and 2−PP=systolic systemic pressure−diastolic systemic pressure. Pulse pressure was calculated as the difference between systolic and diastolic readings.
After being harvested, the trachea was connected to the cannula of a perfusion system. The left lung was clamped while 5 mL of cold PBS solution was injected in the trachea to perform bronchoalveolar lavage to obtain fluid (BALF) of the right lobe of the lungs and was collected for further analysis (Total cell counts and cytokines measurement). Once the BALF sample was collected, it was centrifuged at 1200 rpm for 10 minutes at 4° C. The supernatant was frozen at −80° C. until cytokines analysis. The cells were then resuspended in PBS and counted with a hemocytometer.
Organ weights were expressed as relative percentages and were calculated as follows: Relative organ weight=(organ weight×100)/body weight.
Histological Preparation and Categorization: For each rat, the left lobe of the lungs was harvested, perfused and fixed with 10% neutral buffered formalin. A transversal section of the middle left lobe was cut and forwarded in 10% NBF to the Institute for Research in Immunology and Cancer (Montreal, Quebec, Canada). […]

Where [5] appears, read: RPI: Day 10 to 20, Day 21, vs BLM, P<0.01.
[6] abbreviates: RPI: Day 10 to 20, Day 21, vs BLM, P<0.05.
Setting [7] is: RPT: Day 1 to 20, Day 21, vs BLM, P<0.001.
[8] abbreviates: RPT: Day 1 to 20, Day 21, vs BLM, P<0.01.
[9] abbreviates: RPT: Day 1 to 20, Day 21, vs BLM, P<0.05.
Setting [10] is: all groups (RPT and RPI), Day 21.

Sequence of Human recombinant D2S (P14416 other isoform, or with tags, fused parts or gaps): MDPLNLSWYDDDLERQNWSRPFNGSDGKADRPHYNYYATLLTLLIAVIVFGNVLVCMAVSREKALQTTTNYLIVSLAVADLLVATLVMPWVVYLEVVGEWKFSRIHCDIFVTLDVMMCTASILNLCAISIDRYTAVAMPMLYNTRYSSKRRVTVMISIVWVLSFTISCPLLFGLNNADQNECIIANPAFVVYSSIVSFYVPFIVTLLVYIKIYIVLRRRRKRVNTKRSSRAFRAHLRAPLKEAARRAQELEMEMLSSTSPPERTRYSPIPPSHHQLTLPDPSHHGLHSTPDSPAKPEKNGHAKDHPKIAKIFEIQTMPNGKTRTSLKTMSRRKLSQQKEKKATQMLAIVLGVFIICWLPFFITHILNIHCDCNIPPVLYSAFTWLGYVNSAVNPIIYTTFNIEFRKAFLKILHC
Sequence of Human Cortex or Human recombinant 5-HT2A (P28223 whole entry, looked up): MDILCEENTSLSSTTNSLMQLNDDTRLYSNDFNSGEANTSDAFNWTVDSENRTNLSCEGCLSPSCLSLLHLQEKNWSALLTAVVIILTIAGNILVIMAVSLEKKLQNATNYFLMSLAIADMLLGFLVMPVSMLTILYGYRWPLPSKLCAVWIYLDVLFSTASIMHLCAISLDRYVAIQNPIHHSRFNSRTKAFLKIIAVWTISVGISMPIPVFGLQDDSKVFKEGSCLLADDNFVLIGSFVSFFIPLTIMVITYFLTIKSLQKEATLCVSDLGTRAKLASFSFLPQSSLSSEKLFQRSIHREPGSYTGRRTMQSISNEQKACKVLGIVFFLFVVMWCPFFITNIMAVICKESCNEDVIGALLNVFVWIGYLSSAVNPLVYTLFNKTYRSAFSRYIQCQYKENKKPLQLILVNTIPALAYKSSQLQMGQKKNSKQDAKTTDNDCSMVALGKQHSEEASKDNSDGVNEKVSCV

The term Ki denotes a dissociation constant, usually derived from enzyme kinetics or from competition with a known ligand. With “6-(4-(4-(2-methoxyphenyl)piperazin-1-yl)butoxy)-2H-benzo[b][1,4]oxazin-3(-4H)-one [Compound B]”, the results for the Ki in data set [1], in data set [2] and in data set [3] were 118 nM, 0.3 nM and 0.65 nM, respectively.
On to `O=C1COc2ccc(OCCCCN3CCN(c4cccc(Cl)c4Cl)CC3)cc2N1` [Compound A, 6-(4-(4-(2,3-dichlorophenyl)piperazin-1-yl)butoxy)-2H-benzo[b][1,4]oxazin-3(4H)-one], for which the “survival rate at Day 10” value in data set [4] (Group 3, 15 mg/kg b.i.d. gavage from Day 1 (text calls it RPI; Group 3 = RPT)) came out at 100%. In addition, the “survival rate at Day 21” value in data set [4] (RPI: 15 mg/kg b.i.d. gavage Day 10 to 20) turned out to be 89.5%. For the same compound, in data set [4] (RPI: Day 10 to 20, Day 21), the “BALF IL6” value is on record as “numerically (RPT, RPI) reduced”; the “BALF MIP1” value is listed as “None of the treatments statistically reversed”; the BALF total protein result is given as “numerical improvement reduction”; the arterial pulse pressure result is on record as “slightly restored”. Moreover, in data set [4] (RPI: Day 10 to 20, Day 21), the blood oxygen saturation result is recorded as “improved”, the cardiac output result is given as “slightly restored” and the lung weight entry was “decreased”. Also, in data set [4] (setting [5]), the “BALF IP10” value is recorded as “significant reductions”, the “BALF RANTES” value is listed as “significantly reduced” and the lung hydroxyproline concentration entry is “significant diminution”. Also, in data set [4] (setting [6]), the “BALF MCP1” value was “significant decrease”, the “BALF total cell count” value was “significantly reduced” and the blood lactate levels entry was “diminution”. Moreover, the respiratory resistance entry in data set [4] (RPI: Day 10 to 20, Day 21, vs BLM, P=0.10) is recorded as “showed improvement”. In data set [4] (RPT: 15 mg/kg b.i.d. gavage Day 1 to 20), the “survival rate at Day 21” value stood at 90%. For the same compound, in data set [4] (RPT: Day 1 to 20, Day 21), the “BALF IL6” value is listed as “numerically (RPT, RPI) reduced”; the “BALF MCP1” value was “reductions”; the “BALF MIP1” value is given as “slightly reduced”. In data set [4] (setting [7]), the “Ashcroft Score (H&E staining), lung parenchymal fibrotic changes” value was “significant reduction” and the “percentage of collagen disposition in the lung (Masson's trichrome staining)” value was “significantly reduced”. Further, in data set [4] (setting [8]), the “BALF IP10” value was “significant reductions”, the “BALF RANTES” value was “significantly reduced”, the blood lactate levels result was “diminution” and the body weight entry is “significantly alleviated BLM-induced weight loss”. For the same compound, the cardiac output result in data set [4] (setting [8]) is “restored cardiac output”. Moreover, in data set [4] (setting [9]), the “BALF total cell count” value is reported as “reversal”, the BALF total protein entry was “reversal”, the arterial pulse pressure entry was “improved arterial pulse pressure” and the blood oxygen saturation result was “normalization”. In data set [4] (setting [9]), the lung hydroxyproline concentration result is recorded as “significant diminution”, the lung weight result is “significantly lower” and the respiratory resistance entry is given as “significant reduction”. Also, the body weight result in data set [4] (administered from Day 10 (RPI; printed RPT), Day 21, vs BLM) is given as “slightly increased body weight”. Besides, in data set [4] (setting [10]), the heart rate entry is “relatively similar in all groups” and the systemic arterial pressure result was “no differences were noted among the groups”.
